# Target: SOS1/KRAS WT (Homo sapiens (Human), UniProt Q07889)
# Assay: SOS1/KRAS WT HTRF binding assay (FRET-based protein-protein interaction)
# Conditions: inhibition of His6-SOS1 (aa564-1049, 40 nM) binding to GST-KRAS-WT (aa1-188, 40 nM); at least two independent replicates; read-out: SOS1/KRAS WT HTRF Binding assay pIC50 (converted)
# Outline: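 Time-resolved FRET at 665 nm, read 4 hr after adding anti-GST-Eu(K) (4 nM) and anti-6His-XL665 (20 nM), tracked SOS1(aa564-1049)–KRAS WT(aa1-188) association. Both proteins were at 40 nM, pre-incubated 60 min at room temperature with compound. Max/min signals came from 0.05% DMSO and 10 μM reference, with four-parameter logistic IC50.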
# Chain of SOS1/KRAS WT (Q07889 564-1049): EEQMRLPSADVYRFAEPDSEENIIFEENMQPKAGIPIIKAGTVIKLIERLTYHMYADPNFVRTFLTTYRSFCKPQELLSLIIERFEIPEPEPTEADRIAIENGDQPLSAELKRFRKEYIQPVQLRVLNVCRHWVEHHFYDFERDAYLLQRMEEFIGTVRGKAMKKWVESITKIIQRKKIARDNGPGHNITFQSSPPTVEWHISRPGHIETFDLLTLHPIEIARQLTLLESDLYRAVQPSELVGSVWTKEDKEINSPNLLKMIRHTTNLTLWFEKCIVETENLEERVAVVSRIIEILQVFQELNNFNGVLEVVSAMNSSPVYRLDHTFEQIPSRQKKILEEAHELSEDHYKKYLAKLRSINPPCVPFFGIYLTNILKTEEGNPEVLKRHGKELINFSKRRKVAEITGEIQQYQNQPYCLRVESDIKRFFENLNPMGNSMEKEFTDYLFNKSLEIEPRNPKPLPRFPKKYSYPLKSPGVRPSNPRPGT
row,IC50 [nM],Compound
1,10.7,"CCC1(OC)C(=O)N(C)c2cc3c(N[C@H](C)c4cccc(C(F)(F)C(C)(C)O)c4)nnc(C)c3cc21 (stereo partly drawn) [Compound 202, 3-ethyl-3-methoxy-1,5-dimethyl-8-[[(1R)-1-[3-(1,1-difluoro-2-hydroxy-2-methyl-propyl)phenyl]ethyl]amino]pyrrolo [2,3-g]phthalazin-2-one]"
2,11.7,"CCC1(OC)C(=O)N(C)c2cc3c(N[C@H](C)c4cccc(C(F)(F)CO)c4C)nnc(C)c3cc21 (stereo partly drawn) [Compound 203, 3-ethyl-3-methoxy-1,5-dimethyl-8-[[(1R)-1-[3-(1,1-difluoro-2-hydroxy-ethyl)-2-methyl-phenyl]ethyl]amino]pyrrolo[2,3-g]phthalazin-2-one]"
3,10,"CCC1(OC)C(=O)N(C)c2cc3c(N[C@H](C)c4cccc(C(F)(F)C(C)(C)O)c4F)nnc(C)c3cc21 (stereo partly drawn) [Compound 204, 3-ethyl-3-methoxy-1,5-dimethyl-8-[[(1R)-1-[3-(1,1-difluoro-2-hydroxy-2-methyl-propyl)-2-fluoro-phenyl]ethyl]amino]pyrrolo[2,3-g]phthalazin-2-one]"
4,11.7,"Cc1nnc(N[C@H](C)c2cccc(C(F)F)c2)c2cc3c(cc12)n(C)c(=O)n3C(C)(C)C [Compound 205, 3-tert-butyl-5-[[(1R)-1-[3-(difluoromethyl)phenyl]ethyl]amino]-1,8-dimethyl-imidazo[4,5-g]phthalazin-2-one]"
5,14.5,"CCC1(OC)C(=O)N(C)c2cc3c(N[C@H](C)c4cccc(C(F)(F)CO)c4)nnc(C)c3cc21 (stereo partly drawn) [Compound 206, 3-ethyl-3-methoxy-1,5-dimethyl-8-[[(1R)-1-[3-(1,1-difluoro-2-hydroxy-ethyl)phenyl]ethyl]amino]pyrrolo [2,3-g]phthalazin-2-one]"
6,8.51,"CCC1(OC)C(=O)N(C)c2cc3c(N[C@H](C)c4cccc(C(F)(F)CO)c4F)nnc(C)c3cc21 (stereo partly drawn) [Compound 207, 3-ethyl-3-methoxy-1,5-dimethyl-8-[[(1R)-1-[3-(1,1-difluoro-2-hydroxy-ethyl)-2-fluoro-phenyl]ethyl]amino]pyrrolo[2,3-g]phthalazin-2-one]"
7,9.55,"CCC1(OC)C(=O)N(C)c2cc3c(N[C@H](C)c4cccc(C(F)(F)C(C)(C)O)c4C)nnc(C)c3cc21 (stereo partly drawn) [Compound 209, 3-ethyl-3-methoxy-1,5-dimethyl-8-[[(1R)-1-[3-(1,1-difluoro-2-hydroxy-2-methyl-propyl)-2-methyl-phenyl]ethyl]amino]pyrrolo[2,3-g]phthalazin-2-one]"
8,13.2,"Cc1c([C@@H](C)Nc2nnc(C)c3cc4c(cc23)n(C2CC2)c(=O)n4C)cccc1C(F)(F)C(C)(C)O [Compound 210, 3-cyclopropyl-5-[[(1R)-1-[3-(1,1-difluoro-2-hydroxy-2-methyl-propyl)-2-methyl-phenyl]ethyl]amino]-1,8-dimethyl-imidazo[4,5-g]phthalazin-2-one]"
9,9.77,"Cc1c(C(F)F)cccc1[C@@H](C)Nc1nnc(C)c2cc3c(cc12)n(C)c(=O)n3C [Compound 211, 5-[[(1R)-1-[3-(difluoromethyl)-2-methyl-phenyl]ethyl]amino]-1,3,8-trimethyl-imidazo[4,5-g]phthalazin-2-one]"
10,12.6,"Cc1cc([C@@H](C)Nc2nnc(C)c3cc4c(cc23)n(C)c(=O)n4C)c(C)c(C(F)(F)CO)c1 [Compound 212, 5-[[(1R)-1-[3-(1,1-difluoro-2-hydroxy-ethyl)-2,5-dimethyl-phenyl]ethyl]amino]-1,3,8-trimethyl-imidazo[4,5-g]phthalazin-2-one]"
11,11,"Cc1c(C(F)F)cccc1[C@@H](C)Nc1nnc(C)c2cc3c(cc12)n(C1CC1)c(=O)n3C [Compound 213, 3-cyclopropyl-5-[[(1R)-1-[3-(difluoromethyl)-2-methyl-phenyl]ethyl]amino]-1,8-dimethyl-imidazo[4,5-g]phthalazin-2-one]"

# — US20250197407A1 (Jazz Pharmaceuticals Ireland Limited, priority 2022, published 2025)
